This is an account of results in ChEMBL document CHEMBL3233012, “Synthesis, antimicrobial and cytotoxic activities of pyrimidinyl benzoxazole, benzothiazole and benzimidazole” (Eur J Med Chem, 2014).

The test system of assay [1] is Penicillium chrysogenum. Kind of assay: Antimicrobial activity against Penicillium chrysogenum at 100 ug/well after 48 hrs by agar well diffusion method. Format: functional. The conditions noted are these: read-out: DIZ.
Assay [2] has as its system Penicillium chrysogenum. Kind of assay: Antimicrobial activity against Penicillium chrysogenum at 25 ug/well after 48 hrs by agar well diffusion method. The format is functional. The conditions noted are these: read-out: DIZ.
Assay [3] concerns Staphylococcus aureus. As to the kind of experiment: Antimicrobial activity against Staphylococcus aureus at 25 ug/well after 24 hrs by agar well diffusion method. The conditions noted are these: read-out: DIZ. Format: functional.
Assay [4] has as its system Escherichia coli. Kind of assay: Antimicrobial activity against Escherichia coli at 50 ug/well after 24 hrs by agar well diffusion method. Format: functional. The conditions noted are these: read-out: DIZ.
Assay [5] relates to Staphylococcus aureus. Kind of assay: Antimicrobial activity against Staphylococcus aureus at 100 ug/well after 24 hrs by agar well diffusion method. Particulars: read-out: DIZ. The format is functional.
The test system of assay [6] is Aspergillus niger. As to the kind of experiment: Antimicrobial activity against Aspergillus niger at 100 ug/well after 48 hrs by agar well diffusion method. Format: functional. Particulars: read-out: DIZ.
The subject of the next assay is A549. Kind of assay: Cytotoxicity against human A549 cells assessed as reduction in cell viability up to 200 uM after 20 hrs by MTT assay. The format is functional, cell-based.
Assay [7] has as its system Aspergillus niger. As to the kind of experiment: Antimicrobial activity against Aspergillus niger at 50 ug/well after 48 hrs by agar well diffusion method. The format is functional. The conditions noted are these: read-out: DIZ.
Assay [8] has as its system Pseudomonas aeruginosa. Kind of assay: Antimicrobial activity against Pseudomonas aeruginosa at 100 ug/well after 24 hrs by agar well diffusion method. The format is functional. Particulars: read-out: DIZ.
In assay [9] the test system is Aspergillus niger. Kind of assay: Antimicrobial activity against Aspergillus niger at 25 ug/well after 48 hrs by agar well diffusion method. Format: functional. Particulars: for zone of inhibition at 25 µg/disc: read-out: DIZ.
Assay [10] concerns Pseudomonas aeruginosa. As to the kind of experiment: Antimicrobial activity against Pseudomonas aeruginosa at 25 ug/well after 24 hrs by agar well diffusion method. The format is functional. Particulars: read-out: DIZ.
Assay [11] concerns Penicillium chrysogenum. As to the kind of experiment: Antimicrobial activity against Penicillium chrysogenum at 50 ug/well after 48 hrs by agar well diffusion method. The format is functional. The conditions noted are these: read-out: DIZ.
The subject of assay [12] is Pseudomonas aeruginosa. As to the kind of experiment: Antimicrobial activity against Pseudomonas aeruginosa at 50 ug/well after 24 hrs by agar well diffusion method. The format is functional. The conditions noted are these: read-out: DIZ.
The subject of assay [13] is Escherichia coli. As to the kind of experiment: Antimicrobial activity against Escherichia coli at 25 ug/well after 24 hrs by agar well diffusion method. The conditions noted are these: read-out: DIZ. The format is functional.
Assay [14] has as its system Escherichia coli. Kind of assay: Antimicrobial activity against Escherichia coli at 100 ug/well after 24 hrs by agar well diffusion method. The format is functional. Particulars: read-out: DIZ.
Assay [15] has as its system Staphylococcus aureus. As to the kind of experiment: Antimicrobial activity against Staphylococcus aureus at 50 ug/well after 24 hrs by agar well diffusion method. Format: functional. Particulars: read-out: DIZ.

The source made the active and inactive calls. The calls are words filed in the database; no cut-off is given here.

Turning to `Cc1cc(Sc2nc3ccccc3[nH]2)nc(SCc2nc3ccccc3[nH]2)n1`, the zone of inhibition at 100 µg/disc in the assay with Penicillium chrysogenum [1] is 19 mm; in the assay on Staphylococcus aureus [5], 19 mm; in the assay on Aspergillus niger [6] it was 17 mm; in the assay on Pseudomonas aeruginosa [8], 18 mm; with Escherichia coli [14] it was 22 mm. For the same compound, the zone of inhibition at 25 µg/disc with Penicillium chrysogenum [2] was 15 mm; with Staphylococcus aureus [3], 13 mm; in the assay on Aspergillus niger [9], 14 mm; in the assay on Pseudomonas aeruginosa [10] it was 14 mm; in the assay with Escherichia coli [13] it was 17 mm. Also, the zone of inhibition at 50 µg/disc is 20 mm in the assay on Escherichia coli [4]; 15 mm in the assay with Aspergillus niger [7]; 17 mm with Penicillium chrysogenum [11]; 17 mm in the assay with Pseudomonas aeruginosa [12]; 16 mm with Staphylococcus aureus [15]. Besides, in the assay on A549, the outcome was inactive.

Regarding `Cc1cc(Sc2nc3ccccc3o2)nc(SCc2nc3ccccc3o2)n1`, the zone of inhibition at 100 µg/disc came to 13 mm with Penicillium chrysogenum [1]; 14 mm in the assay with Staphylococcus aureus [5]; 12 mm in the assay on Aspergillus niger [6]; 14 mm in the assay with Pseudomonas aeruginosa [8]; 17 mm in the assay on Escherichia coli [14]. Moreover, the zone of inhibition at 25 µg/disc amounted to 9 mm in the assay with Penicillium chrysogenum [2]; 9 mm with Staphylococcus aureus [3]; 8 mm in the assay with Aspergillus niger [9]; 10 mm in the assay with Pseudomonas aeruginosa [10]; 10 mm in the assay on Escherichia coli [13]. Moreover, the zone of inhibition at 50 µg/disc in the assay with Escherichia coli [4] came to 15 mm; with Aspergillus niger [7], 10 mm; in the assay on Penicillium chrysogenum [11], 11 mm; with Pseudomonas aeruginosa [12] it was 11 mm; in the assay with Staphylococcus aureus [15] it was 11 mm. Also, the outcome with A549 was inactive.

For `Cc1cc(Cl)nc(SCc2nc3ccccc3s2)n1`, the zone of inhibition at 100 µg/disc in the assay with Penicillium chrysogenum [1] was determined as 11 mm; in the assay with Staphylococcus aureus [5] it was 16 mm; in the assay with Aspergillus niger [6] it was 10 mm; with Pseudomonas aeruginosa [8] it was 10 mm; in the assay on Escherichia coli [14] it was 14 mm. Moreover, the zone of inhibition at 25 µg/disc stood at 7 mm in the assay with Penicillium chrysogenum [2], 6 mm with Staphylococcus aureus [3], 7 mm in the assay on Pseudomonas aeruginosa [10] and 7 mm in the assay on Escherichia coli [13]. The zone of inhibition at 50 µg/disc came to 10 mm with Escherichia coli [4]; 8 mm in the assay on Aspergillus niger [7]; 9 mm in the assay with Penicillium chrysogenum [11]; 9 mm in the assay with Pseudomonas aeruginosa [12]; 4 mm with Staphylococcus aureus [15]. Besides, in the assay with A549, the outcome was inactive. Moreover, the “diameter of the inhibition zone (DIZ)” value in the assay on Aspergillus niger [9] was “inactive”.

For the compound `Cc1cc(Nc2nc3ccccc3[nH]2)nc(SCc2nc3ccccc3[nH]2)n1`, the zone of inhibition at 100 µg/disc came out at 33 mm with Penicillium chrysogenum [1]; 20 mm in the assay with Staphylococcus aureus [5]; 25 mm in the assay with Aspergillus niger [6]; 21 mm in the assay on Pseudomonas aeruginosa [8]; 25 mm in the assay with Escherichia coli [14]. Moreover, the zone of inhibition at 25 µg/disc came out at 29 mm in the assay on Penicillium chrysogenum [2]; 15 mm in the assay on Staphylococcus aureus [3]; 20 mm with Aspergillus niger [9]; 16 mm in the assay with Pseudomonas aeruginosa [10]; 19 mm in the assay on Escherichia coli [13]. Further, the zone of inhibition at 50 µg/disc with Escherichia coli [4] is 22 mm; in the assay on Aspergillus niger [7] it was 23 mm; in the assay on Penicillium chrysogenum [11], 31 mm; in the assay on Pseudomonas aeruginosa [12], 19 mm; in the assay with Staphylococcus aureus [15], 17 mm. In the assay on A549, the result was inactive.
